Experiments:
[1] = system: Setaria; experiment: Pre-emergence greenhouse pot trial, Setaria (Example V, Table V); format: in vivo
Experimental: (§1) The results and also the results of all following examples were evaluated 4 weeks later according to the following scheme:
(§2) In a greenhouse the compounds to be tested were sprayed on the surface of the soil directly after sowing. […] Dicotyledonous crop plants (the same as used in Example I) were not damaged by the applied amounts.
(§3) Effect on weed grasses in a pre-emergence process (evalua-
(§4) tion scheme) experiment in pots in the greenhouse.

[2] = system: spring barley; experiment: Post-emergence treatment, pots on a site without roof, spring barley (Example IV, Table IV); format: in vivo; details: emulsion concentrate; also: ranges in brackets are in %
Experimental: as §1
(§5) In summer a further experiment was carried through under similar conditions to compare the effect of compound 1a with that of comparative compound A. Both compounds were used in the form of an emulsion concentrate (Table IV).
(§6) Post-emergence treatment (evaluation scheme); experiment
(§7) in pots on a site without roof

[3] = system: Avena ludoviciana; experiment: Post-emergence treatment, pots on a site without roof, Avena ludoviciana (Example IV, Table IV); format: in vivo; details: post-emergence, emulsion concentrate
Experimental: as §1, §5, §6, §7

[4] = system: spring wheat; experiment: Post-emergence treatment, pots on a site without roof, spring wheat (Example IV, Table IV); format: in vivo; details: emulsion concentrate; also: ranges in brackets are in %
Experimental: as §1, §5, §6, §7

[5] = system: Echinochloa; experiment: Post-emergence greenhouse pot trial, Echinochloa (Example I, Table I); format: in vivo; details: greenhouse pots, 4 weeks
Experimental: (§8) Seeds of weed grasses were sown in pots filled with loamy soil and placed in the greenhouse for germination and emergence. As soon as the plants had developed 3 or 4 leaves, they were sprayed with wettable powder formulations, suspended in water, of compounds according to the invention.
as §1
(§9) 4 is still considered an acceptable herbicidal effect in weeds and a satisfactory preserving effect in crop plants (cf. Bolle, Nachrichtenblatt des Deutschen Pflanzenschutzdienstes 16, 1964, pages 92-94).
(§10) Effect on weed grasses in a post-emergence trial in pots
(§11) in the greenhouse (Evaluation scheme)

[6] = system: spring wheat; experiment: Post-emergence trial in two stages, pots on a site without roof, spring wheat (Example II, Table II); format: in vivo
Experimental: as §1
(§12) The amounts of active compound required for a 90% effect, determined by the probit method (cf. Bliss, Annals of Applied Biology, 22 1935), show very distincly the difference between the compound of the invention and the comparative compound. […] None of the compounds did any harm to the wheat.
(§13) Post-emergence treatment in two different stages of development
(§14) Experiments in pots on a site without roof
(§15) stage 1: 3 to 4 leaves with beginning growth of side
(§16) stage 2: main tillering to terminated tillering.

[7] = system: Alopecurus myos.; experiment: Post-emergence treatment, pots on a site without roof, blackgrass (Example IV, Table IV); format: in vivo, annual black-grass (Alopecurus); details: for Effect (evaluation scheme), Alopecurus myos.: post-emergence, emulsion concentrate
Experimental: as §1, §5, §6, §7

[8] = system: Lolium; experiment: Pre-emergence greenhouse pot trial, Lolium (Example V, Table V); format: in vivo
Experimental: as §1, §2, §3, §4

[9] = system: wild oat; experiment: Field trial in wild oat, post-emergence treatment (Example VI, Table VI); format: in vivo; details: for efficiency in % (counting of panicles) / evaluation 5 weeks after treatment: post-emergence
Experimental: In a field trial compound 1a of the invention was sprayed in the form of a 36% wettable powder formulation onto wild oat (single system, natural growth) after the plants had developed 3 or 4 leaves.
Three lots each were treated with different concentrations of the active compound and the comparative compound, the amount of spray liquor applied being 600 liters per hectare. Besides the usual visual evaluation at the end of the trial, the number of panicles per square meter was counted. In the untreated lots 400 to 500 panicles were counted per square meter, i.e. the field was heavily infected.
The relations are still more distinct when the amount of active compound required for a 90% effect is determined by the probit method (graphical evaluation) mentioned in Example II.

[10] = system: Avena fatua; experiment: Post-emergence treatment, pots on a site without roof, Avena fatua (Example IV, Table IV); format: in vivo; details: post-emergence, emulsion concentrate
Experimental: as §1, §5, §6, §7

[11] = system: Setaria; experiment: Post-emergence greenhouse pot trial, Setaria (Example I, Table I); format: in vivo; details: greenhouse pots, 4 weeks
Experimental: as §8, §1, §9, §10, §11

[12] = system: Digitaria; experiment: Post-emergence greenhouse pot trial, Digitaria (Example I, Table I); format: in vivo; details: greenhouse pots, 4 weeks
Experimental: as §8, §1, §9, §10, §11

[13] = system: sugar beet; experiment: Post emergence treatment in two stages, boxes on a site without roof, sugar beet (Table III); format: in vivo; details: 0.9 kg/hectare
Experimental: as §1
(§17) Effect on wild oat and sugar beet
(§18) Post emergence treatment in two stages of development
(§19) boxes 20 × 24 × 22 cm in size on a site without roof

[14] = system: Digitaria; experiment: Pre-emergence greenhouse pot trial, Digitaria (Example V, Table V); format: in vivo
Experimental: as §1, §2, §3, §4

[15] = system: Avena fatua; experiment: Post-emergence trial in two stages, pots on a site without roof, wild oat (Example II, Table II); format: in vivo; details: for 90% effective dose: probit method; for Effect on wild oat (evaluation), Avena fatua: post-emergence
Experimental: as §1, §12, §13, §14, §15, §16

[16] = system: Avena fatua; experiment: Post emergence treatment in two stages, boxes on a site without roof, wild oat (Table III); format: in vivo; details: 0.9 kg/hectare
Experimental: as §1, §17, §18, §19

[17] = system: Lolium; experiment: Post-emergence greenhouse pot trial, Lolium (Example I, Table I); format: in vivo; details: greenhouse pots, 4 weeks
Experimental: as §8, §1, §9, §10, §11

[18] = system: Echinochloa; experiment: Pre-emergence greenhouse pot trial, Echinochloa (Example V, Table V); format: in vivo
Experimental: as §1, §2, §3, §4

[19] = system: Alopecurus; experiment: Post-emergence greenhouse pot trial, annual blackgrass (Example I, Table I); format: in vivo, annual blackgrass (Alopecurus); details: for Effect on weed grasses (evaluation scheme number), Alopecurus: greenhouse pots, 4 weeks
Experimental: as §8, §1, §9, §10, §11

## COC(=O)C(C)Oc1ccc(Oc2ccc(Cl)cc2Cl)cc1 (stereo not drawn) [A, methyl-2-[4-(2',4'-dichlorophenoxy)-phenoxy]-propionate, reference compound]
[1]; 0.62 kg/hectare
  Effect on weed grasses (evaluation scheme), Setaria: 8 (32.5 to <65.0)
[1]; 1.25 kg/hectare
  Effect on weed grasses (evaluation scheme), Setaria: 6 (75.0 to <85.0)
[2]; 0.225 kg/hectare
  evaluation scheme, spring barley: 1 (0)
[2]; 0.45 kg/hectare
  evaluation scheme, spring barley: 1 (0)
[2]; 0.9 kg/hectare
  evaluation scheme, spring barley: 1 (0)
[3]; 0.225 kg/hectare
  Effect (evaluation scheme), Avena ludoviciana: 7 (65.0 to <75.0)
[3]; 0.45 kg/hectare
  Effect (evaluation scheme), Avena ludoviciana: 7 (65.0 to <75.0)
[3]; 0.9 kg/hectare
  Effect (evaluation scheme), Avena ludoviciana: 6 (75.0 to <85.0)
[4]; 0.225 kg/hectare
  evaluation scheme, spring wheat: 1 (0)
[4]; 0.45 kg/hectare
  evaluation scheme, spring wheat: 1 (0)
[4]; 0.9 kg/hectare
  evaluation scheme, spring wheat: 1 (0)
[5]; 0.15 kg/hectare
  Effect on weed grasses (evaluation scheme number), Echinochloa: 4 (90.0 to <95.0)
[5]; 0.62 kg/hectare
  Effect on weed grasses (evaluation scheme number), Echinochloa: 3 (95.0 to <.97.5)
[5]; 2.5 kg/hectare
  Effect on weed grasses (evaluation scheme number), Echinochloa: 2 (97.5 to <100)
[6]; stage 1, 0.112 kg/hectare
  evaluation, spring wheat: 1 (0)
[6]; stage 1, 0.225 kg/hectare
  evaluation, spring wheat: 1 (0)
[6]; stage 1, 0.45 kg/hectare
  evaluation, spring wheat: 1 (0)
[6]; stage 1, 0.9 kg/hectare
  evaluation, spring wheat: 1 (0)
[6]; stage 2, 0.112 kg/hectare
  evaluation, spring wheat: 1 (0)
[6]; stage 2, 0.225 kg/hectare
  evaluation, spring wheat: 1 (0)
[6]; stage 2, 0.45 kg/hectare
  evaluation, spring wheat: 1 (0)
[6]; stage 2, 0.9 kg/hectare
  evaluation, spring wheat: 1 (0)
[7]; 0.225 kg/hectare
  Effect (evaluation scheme), Alopecurus myos.: 8 (32.5 to <65.0)
[7]; 0.45 kg/hectare
  Effect (evaluation scheme), Alopecurus myos.: 6 (75.0 to <85.0)
[7]; 0.9 kg/hectare
  Effect (evaluation scheme), Alopecurus myos.: 4 (90.0 to <95.0)
[7]; in words
  response of annual black-grass (Alopecurus): little
[8]; 0.62 kg/hectare
  Effect on weed grasses (evaluation scheme), Lolium: 6 (75.0 to <85.0)
[8]; 1.25 kg/hectare
  Effect on weed grasses (evaluation scheme), Lolium: 5 (85.0 to <90.0)
[9]; 0.54 kg/hectare
  efficiency in % (counting of panicles): 50.7%
  evaluation 5 weeks after treatment: 8 (32.5 to <65.0)
[9]; 0.72 kg/hectare
  efficiency in % (counting of panicles): 59.9%
  evaluation 5 weeks after treatment: 7 (65.0 to <75.0)
[9]; 0.90 kg per hectare, in words
  effect on wild oat: insufficient
[9]; 0.90 kg/hectare
  efficiency in % (counting of panicles): 65.2%
  evaluation 5 weeks after treatment: 6 (75.0 to <85.0)
[9]; without wetting agent, probit method (graphical evaluation)
  amount of active compound required for a 90% effect: 2.7 kg/hectare
[10]; 0.225 kg/hectare
  Effect (evaluation scheme), Avena fatua: 8 (32.5 to <65.0)
[10]; 0.45 kg/hectare
  Effect (evaluation scheme), Avena fatua: 8 (32.5 to <65.0)
[10]; 0.9 kg/hectare
  Effect (evaluation scheme), Avena fatua: 6 (75.0 to <85.0)
[11]; 0.15 kg/hectare
  Effect on weed grasses (evaluation scheme number), Setaria: 4 (90.0 to <95.0)
[11]; 0.62 kg/hectare
  Effect on weed grasses (evaluation scheme number), Setaria: 2 (97.5 to <100)
[11]; 2.5 kg/hectare
  Effect on weed grasses (evaluation scheme number), Setaria: 1 (100)
[12]; 0.15 kg/hectare
  Effect on weed grasses (evaluation scheme number), Digitaria: 8 (32.5 to <65.0)
[12]; 0.62 kg/hectare
  Effect on weed grasses (evaluation scheme number), Digitaria: 3 (95.0 to <.97.5)
[12]; 2.5 kg/hectare
  Effect on weed grasses (evaluation scheme number), Digitaria: 1 (100)
[13]; 2-leaf stage
  sugar beet number: 2 (0 to 2.5)
[13]; 4-leaf stage
  sugar beet number: 2 (0 to 2.5)
[14]; 0.62 kg/hectare
  Effect on weed grasses (evaluation scheme), Digitaria: 7 (65.0 to <75.0)
[14]; 1.25 kg/hectare
  Effect on weed grasses (evaluation scheme), Digitaria: 4 (90.0 to <95.0)
[15]; stage 1 (3 to 4 leaves with beginning growth of side)
  90% effective dose: 0.55 kg per hectare
[15]; stage 1, 0.112 kg/hectare
  Effect on wild oat (evaluation), Avena fatua: 9 (0 to <32.5)
[15]; stage 1, 0.225 kg/hectare
  Effect on wild oat (evaluation), Avena fatua: 8 (32.5 to <65.0)
[15]; stage 1, 0.45 kg/hectare
  Effect on wild oat (evaluation), Avena fatua: 5 (85.0 to <90.0)
[15]; stage 1, 0.9 kg/hectare
  Effect on wild oat (evaluation), Avena fatua: 3 (95.0 to <.97.5)
[15]; stage 2 (main tillering to terminated tillering)
  90% effective dose: 0.82 kg per hectare
[15]; stage 2, 0.112 kg/hectare
  Effect on wild oat (evaluation), Avena fatua: 8 (32.5 to <65.0)
[15]; stage 2, 0.225 kg/hectare
  Effect on wild oat (evaluation), Avena fatua: 7 (65.0 to <75.0)
[15]; stage 2, 0.45 kg/hectare
  Effect on wild oat (evaluation), Avena fatua: 5 (85.0 to <90.0)
[15]; stage 2, 0.9 kg/hectare
  Effect on wild oat (evaluation), Avena fatua: 5 (85.0 to <90.0)
[16]; 3-leaf stage
  Effect on wild oat, Avena fatua, number: 2 (97.5 to <100)
  degree of damage % (evaluation by weight), Avena fatua: 99%
[16]; start of tillering
  Effect on wild oat, Avena fatua, number: 5 (85.0 to <90.0)
  degree of damage % (evaluation by weight), Avena fatua: 79%
[17]; 0.15 kg/hectare
  Effect on weed grasses (evaluation scheme number), Lolium: 7 (65.0 to <75.0)
[17]; 0.62 kg/hectare
  Effect on weed grasses (evaluation scheme number), Lolium: 5 (85.0 to <90.0)
[17]; 2.5 kg/hectare
  Effect on weed grasses (evaluation scheme number), Lolium: 3 (95.0 to <.97.5)
[18]; 0.62 kg/hectare
  Effect on weed grasses (evaluation scheme), Echinochloa: 4 (90.0 to <95.0)
[18]; 1.25 kg/hectare
  Effect on weed grasses (evaluation scheme), Echinochloa: 3 (95.0 to <.97.5)
[19]; greenhouse
  amount sufficient/required to keep blackgrass satisfactorily under control: 2.5 kg per hectare
[19]; 0.15 kg/hectare
  Effect on weed grasses (evaluation scheme number), Alopecurus: 8 (32.5 to <65.0)
[19]; 0.62 kg/hectare
  Effect on weed grasses (evaluation scheme number), Alopecurus: 7 (65.0 to <75.0)
[19]; 2.5 kg/hectare
  Effect on weed grasses (evaluation scheme number), Alopecurus: 4 (90.0 to <95.0)

From patent publication US4370489A, “Herbicidal compounds” (Hoechst Aktiengesellschaft, priority 1976, dated 1983)
